Values belong to the compound of their own block, whether it stands above or below them.
Assays:
[1] = system: C85 colorectal adenocarcinoma cells; assay: Clonogenic assay with C85 colorectal adenocarcinoma cells; type: cell-based, human
Procedure: Compounds identified by structure based screening were assayed in a clonogenic assay with C85 colorectal adenocarcinoma cells. Briefly, C85 cells were plated at 200 cells per well in six well plates. Seventy-two hours after plating, compounds 05RB, 0BWP, 0FZK, 0RZL, HBS01, 01LX, 0464, 1BJO AND 27NT were added at various concentrations (See Table 1). Colonies were counted 96 hours after treatment and IC50 concentrations determined (Table 1).

cyclin-B = assay: Ubiquination of cyclin-B in C85 cell lysates (Western blot); type: cell-based; conditions: C85 cells treated for 24 hrs
Procedure: The ability of HBS01 to inhibit protein ubiquination of cyclin-B was assayed in C85 cell lines. Briefly, C85 cells were plated at 200 cells per well in six well plates. Cells were either untreated (controls) or treated for 24 hrs with HBS01. After the treatment period, cells were harvested and extracts were prepared from the cells by freeze fracturing in liquid nitrogen in breakage buffer (50 mM Tris pH 7.5, 1 mM DTT, “Complete” protease inhibitor cocktail (Roche, Cat.# 1697498), 10 μM MG132). Roughly […] of total protein extracts in 300 μl of breakage buffer was supplemented with 20 μg of PHH-Ub (HA and His6 tagged Ubiquitin) and incubated at 30° C. for 60 min. 3×SDS-PAGE sample buffer was added to 40 μl of this reaction and boiled for 3 min. The extracts were run on 12% Laemmli gels and Western Blots were performed with anti-cyclin-B antibody (Santa Cruz Biotechnology, Inc., Santa Cruz, Calif.). Results were visualized by ECL, with the ECL plus western blot detection kit (Amersham Biosciences, Piscataway, N.J.) according to manufacturers instructions.

MCF-7 = assay: MTS cell proliferation assay in MCF-7; type: cell-based; conditions: Homo sapiens, MCF7
Procedure: (§1) In order to determine the IC50 values of HBS01 an MTS assay was performed on MCF-7 and MCF-7/ADR (adramycin resistance) cell lines. Cells were plated in a 96 well plate at 5,000 cells/well. After plating, cells were treated for 96 hours with either HBS01, methotrexate (MTX), doxyrubicin (DOX), or 5-Fluorouracil (5FU) and an MTS assay was performed according to manufacturer's protocol with the CELL TITER 96 AQ non-radioactive cell proliferation assay kit (Promega, Cat. No. G5421). Viable cells were quantitated based on absorbance at 490 nm. […] Thus, HBS01 was an extremely potent inhibitor of MCF-7 and MCF-7Adr proliferation.

[2] = system: protein ubiquination pathways; assay: Protein ubiquination in C85 cell lysates (HA-tagged ubiquitin Western blot); type: cell-based; conditions: C85 cells treated for 24 or 48 hrs
Procedure: Briefly, C85 cells were plated at 200 cells per well in six well plates.
Cells were either untreated (controls) or treated for 24 or 48 hrs with HBS01. After the treatment period, cells were harvested and extracts were prepared from the cells by freeze fracturing in liquid nitrogen in breakage buffer (50 mM Tris pH 7.5, 1 mM DTT, “Complete” protease inhibitor cocktail (Roche, Cat.# 1697498), 10 μM MG132). Roughly […] of total protein extracts in 300 μl of breakage buffer was supplemented with 20 μg of PHH-Ub (HA and His6 tagged Ubiquitin) and incubated at 30° C. for 60 min. 3×SDS-PAGE sample buffer was added to 40 μl of this reaction and boiled for 3 min. The extracts were run on 12% Laemmli gels that were either stained with Coomassie Blue R-250 or blotted with HRP conjugated 12CA5 monoclonal antibody (Roche, Inc., Indianapolis, Ind.) and visualized by ECL, with the ECL plus western blot detection kit (Amersham Biosciences, Piscataway, N.J.) according to manufacturers instructions.

[3] = system: MCF-7 breast cancer cells; assay: MCF-7 breast cancer tumors in nude mice; type: in vivo
Procedure: MCF-7 breast cancer cell growth was assessed in nude mice (NIH, Cr:(MCr)-Fox1nu(nu/nu homogygous), Taconic Inc., Germantown, N.Y.) treated or pretreated with HBS01 over 31 days. Briefly, pretreated animals were administered three daily doses of HBS01 at 17 mg/Kg given on day −3, −2, and −1 prior to tumor cell injection on day 0. No further treatment was given to the pretreated animals. Nude mice were injected in the flanks with 200,000 MCF-7 breast cancer cells. Treated animals were treated with daily injections of HBS01 at 17 mg/kg per at days 10, 11, 12, 15, 16 and 17 following appearance of palpable tumors on day 10. Tumor diameters were measured with calipers every alternate day and tumor volumes were calculated by ½ab^2 where a is the larger diameter (Friedman, H S., et al. Cancer Res. 46, 2827-2833). The results are shown in FIG. 4 as tumor volume in cm^3.

[4] = Maximum tolerated dose in mice; conditions: nude, mouse, in vivo
[5] = system: MCF-7/ADR (adramycin resistance) cell line; assay: MTS cell proliferation assay in MCF-7/ADR; type: cell-based; conditions: Homo sapiens, NCI/ADR-RES
Procedure: as §1

EGFP marked C85 cells = assay: Metastatic growth of EGFP marked C85 cells in nude mice; type: in vivo; conditions: pre-treated 14.5 mg/kg every 24 hrs for five days; ten days post-C85 tail vein injection
Procedure: The effect of HBS01 on the metastatic growth of enhanced green fluorescent protein (EGFP) marked C85 cells was assayed in nude mice (NIH, Cr:(MCr)-Fox1nu(nu/nu homogygous), Taconic Inc., Germantown, N.Y.). Briefly, nude mice were pre-treated with 14.5 mg/kg of HBS01 every 24 hrs for five days. At the completion of pre-treatment the pre-treated or control non-treated mice were injected in the tail vein with 1×10^6 EGFP marked C85 cells. Ten days post-C85 injection, the mice were dissected and tumor size assessed based on intravital fluorescence imaging and liver biopsies.

[6] = system: C85 human colorectal cancer cells; assay: C85 colorectal tumors in nude mice; type: in vivo
Procedure: C85 human colorectal cancer cell growth was assessed in nude mice (NIH, Cr:(MCr)-Fox1nu(nu/nu homogygous), Taconic Inc., Germantown, N.Y.) treated or pretreated with HBS01 over a 19 day period. Briefly, pretreated animals were administered three daily doses of HBS01 at 17 mg/Kg given on day −3, −2, and −1 prior to tumor cell injection on day 0. No further treatment was given to the pretreated animals. Nude mice were injected in the flanks with 1 million C85 human colorectal cancer cells. Treated animals were treated with daily injections of HBS01 at 17 mg/kg per at days 10, 11, 12, 15, 16 and 17 following appearance of palpable tumors on day 10.
Tumor diameters were measured with calipers every alternate day and tumor volumes were calculated by ½ab^2 where a is the larger diameter (Friedman, H S., et al. Cancer Res. 46, 2827-2833). The results are shown in FIG. 3 as tumor volume in cm^3.

[7] = Homo sapiens, C85 cells, colonies counted 96 hours after treatment
[8] = pretreated animals, 17 mg/Kg on day -3, -2 and -1 prior to tumor cell injection

Compound: Oc1cc(Cl)cnc1O [Compound 0FZK, 5-chloro-2,3-dihydroxypyridine]
IC50 [1, 7]: 175000 nM

Compound: NCC1CCNCC1 [HBS01, 4-(Aminomethyl)piperidine]
ubiquination of cyclin-B (cyclin-B): selectively inhibited the ubiquination of cyclin-B | IC50 (MCF-7; MCF-7, treated for 96 hours, MTS): 0.03 µM | IC50 (MCF-7; breast cancer cell line MCF-7): 0.03 µM | general ubiquitin conjugation (ubiquitin intensities and banding patterns) [2]: general inactivation of the ubiquitin conjugation pathways did not occur | onset of tumors (tumor volume) [3, 8]: delayed the onset of MCF-7 tumors | tumor growth (tumor volume) ([3]; treated animals, 17 mg/kg daily at days 10, 11, 12, 15, 16 and 17): significantly inhibited tumor growth | MTD [4]: 1400 mg/kg | IC50 ([1]; Homo sapiens, C85 cells, colonies counted 96 hours after treatment, * denotes nM): 30 nM | IC50 ([1]; human colon cancer cell line C85): 30 nM | IC50 ([5]; MCF-7Adr, treated for 96 hours, MTS): 0.03 µM | IC50 ([5]; breast cancer cell line MCF-7Adr): 0.03 µM | metastatic tumors (EGFP marked C85 cells): metastatic tumors were not detectable | tumor growth (tumor volume) [6, 8]: delayed tumor growth | growth of established tumors (tumor volume) ([6]; treated animals, 17 mg/kg daily at days 10, 11, 12, 15, 16 and 17, 17 mg/kg): significantly inhibited the growth of established tumors

Compound: Nc1ccc(Nc2ccccc2)cc1 [Compound 05RB, N-Phenyl-4-phenylenediamine]
IC50 ([1]; C85 cells, colonies counted 96 hours after treatment): 37500 nM

Compound: NC(=O)c1ccc([N+](=O)[O-])cc1Cl [Compound 0BWP, 2-Chloro-4-nitrobenzamide]
IC50 [1, 7]: 600000 nM

Compound: CC(=O)Nc1ccccc1O [Compound 01LX, 2-Acetamidophenol]
IC50 [1, 7]: 375000 nM

Further lines, results first:

IC50 [1, 7]: 50000 nM
Compound: CC1CN(c2ccccc2)NC1=O (centres unmarked) [Compound 0RZL, 1-Phenyl-4-methyl-3-pyrazolidone]

IC50 [1, 7]: 70000 nM
Compound: Nc1ccc2cn[nH]c2c1 [Compound 0464, 6-AMINOINDAZOLE]

From patent US8003572B2 (priority 2004, dated 2011)
